Assay results taken from patent US20230125698A1, “APHERESIS COLUMN FOR TREATING RHEUMATOID ARTHRITIS” (UNIVERSITÉ PAUL SABATIER TOULOUSE III, priority 2020, published 2023).
Non-standard residues stand in square brackets, D forms with d. No end group written: not given here. Cit = NC(=O)NCCC[C@H](N)C(=O)O

How the values were obtained:
[1] = test system: anti-citrullinated peptide/protein antibodies (ACPA) in serums from AhFibA-positive rheumatoid arthritis patients; experiment: ELISA reactivity of rheumatoid arthritis patient serums with respect to the citrullinated peptides; assay type: binding, human; set-up: key to Reactivity profile of serum with respect to the peptide: +++: strong positive; ++: medium positive; +: weak positive; empty box: negative; conditions: for Correlation between the reactivities of the serums with respect to the different peptides (Spearman): 202 serums, peptide pairs compared; for Reactivity profile of serum with respect to the peptide: ELISA
Method: Serum samples were obtained from 202 rheumatoid arthritis patients positive for the “AhFibA” ELISA test, which allows to detect and titer the ACPA using the citrullinated human fibrinogen as an immunosorbent.
The antigens or immunosorbents (citrullinated fibrinogen or citrullinated and non-citrullinated peptides), solubilised in PBS (1.5 mM KH2PO4 SIGMA 795488; 7 mM K2HPO4 SIGMA P3786; 0.15M NaCl SIGMA 31434; pH 7.2) at concentrations of 5 and 10 μg/mL, are adsorbed in the microtiter plate wells (MAXISORP NUNC 2023-09) by incubation overnight at 4° C., or used in avidin-biotin system: avidin 5 μg/mL in PBS incubated overnight at 4° C. and then, after washing, biotinylated peptide at 10 μg/mL in PBS, incubated 1 h at 4° C. After blocking in PBS 2% BSA (Sigma A3059) for 1 hour at 4° C. and washing in PBS 0.1% Tween®20 (SIGMA P1379), the samples to be tested are deposited diluted 1:50 (1:100 in the Avidin-Biotin system) or at equivalent corrected dilutions, in PBS 2% BSA 2MNaCl. After washing, the secondary antibody (goat anti-human IgG Fc fragment coupled to horseradish peroxidase; Southern Biotech 2040-05) is incubated for 1 hour at 4° C. After washing, the revelation is performed with a solution of Ortho-Phenylene Diamine dihydrochloride (Sigma P2788), 0.03% H2O2 (Sigma H1009), in citrate/H3PO4 buffer pH5 (0.05 M citric acid Sigma C0759; 0.1 M Na2HPO4 Prolabo 28026292) for 5 minutes at room temperature, and then stopped with a solution of H2SO4 6N (Sigma 07208). The optical density (OD) is read at 492 nm with a Multiskan Fc plate reader (ThermoScientific).
Expression of the results of the ELISA tests: for the peptides, the variation in OD between the reactivity of the citrullinated peptide and the reactivity of the non-citrullinated peptide is taken into account, each reactivity being previously subtracted from its blank (OD in the absence of sample). This gives the following formula:
ΔDO=(DOcit−DOblank cit)−(DOnoncit−DOblank noncit) [Math 1]
The ΔDO for the peptides and the OD for the citrullinated fibrinogen are considered to express the titer of the samples tested.
The inter-assay variations are corrected for by using a range of dilutions of a pool of patient serums tested in each microtiter plate. This reference pool, named P97, was made up of 97 samples of the same volume from 97 patients with a high ACPA titer. The OD values of this internal range are compared to that of reference values where each point in the range is the average of 30 determinations previously performed from this same pool. The least squares method then allows to obtain a correction factor which is applied to all the OD values obtained on the corresponding plate. This corrected OD corresponds to the titer of the sample.
The reactivity profiles of the 202 samples of patient serums with respect to the citrullinated fibrinogen and the 4 citrullinated peptides were determined by ELISA in at least two independent assays, each being done in duplicate. For the sake of reproducibility, only the microtiter plates whose internal range required the application of a correction factor between 0.5 and 2 with respect to the reference range were considered.

[2] = test system: anti-citrullinated peptide/protein antibodies (ACPA) in serums from AhFibA-positive rheumatoid arthritis patients; experiment: as above; assay type: binding, human; conditions: β60-74Cit-NH2 and/or Ac-α36-50Cit
[3] = serum n°1, ACPA-positive RA patient serum
[4] = serum n°6, ACPA-positive RA patient serum
[5] = serum n°10, ACPA-positive RA patient serum
[6] = serum n°16, ACPA-positive RA patient serum
[7] = serum n°17, ACPA-positive RA patient serum
[8] = serum n°22, ACPA-positive RA patient serum
[9] = serum n°25, ACPA-positive RA patient serum
[10] = serum n°29, ACPA-positive RA patient serum
[11] = serum n°41, ACPA-positive RA patient serum
[12] = serum n°64, ACPA-positive RA patient serum

| Substance | Correlation between the reactivities of the serums with respect to the different peptides (Spearman) [1] | Reactivity profile of serum with respect to the peptide [1, 3] | Reactivity profile of serum with respect to the peptide [1, 4] | Reactivity profile of serum with respect to the peptide [1, 5] | Reactivity profile of serum with respect to the peptide [1, 6] | Reactivity profile of serum with respect to the peptide [1, 7] | Reactivity profile of serum with respect to the peptide [1, 8] | Reactivity profile of serum with respect to the peptide [1, 9] | Reactivity profile of serum with respect to the peptide [1, 10] | Reactivity profile of serum with respect to the peptide [1, 11] | Reactivity profile of serum with respect to the peptide [1, 12] | Reactivity of the plasmas tested to the peptide [2] | Percentage of RA serums positive (reactive in ELISA) for the peptide ([1]; 202 serums from AhFibA-positive RA patients) |
| --- | --- | --- | --- | --- | --- | --- | --- | --- | --- | --- | --- | --- | --- |
| GPX1VVEX2HQSACKDS (Ac-GP[Cit]VVE[Cit]HQSACKDS) [Ac-α36-50Cit, N-terminal G acetylated; X1 and X2 citrullyl residues; fibrinogen α-chain 36-50] | no correlation was found | [empty] | [empty] | [empty] | + | + | [empty] | +++ | + | +++ | +++ | most of the plasmas tested were reactive | – |
| VDIDIKIX1SCX2GSCS (VDIDIKI[Cit]SC[Cit]GSCS; cysteine pairing not given here) [α171-185Cit, X1 and X2 citrullyl residues; fibrinogen α-chain 171-185] | significant correlations | + | + | + | ++ | +++ | +++ | [empty] | [empty] | ++ | [empty] | – | – |
| X1GHAKSX2PVX3GIHTS ([Cit]GHAKS[Cit]PV[Cit]GIHTS) [α621-635Cit, X1, X2 and X3 citrullyl residues; fibrinogen α-chain 621-635] | significant correlations | + | +++ | [empty] | +++ | +++ | ++ | + | +++ | [empty] | [empty] | – | – |
| X1PAPPPISGGGYX2AX3 ([Cit]PAPPPISGGGY[Cit]A[Cit]-NH2; N-terminus assumed; SMILES CC[C@H](C)[C@H](NC(=O)[C@@H]1CCCN1C(=O)[C@@H]1CCCN1C(=O)[C@@H]1CCCN1C(=O)[C@H](C)NC(=O)[C@@H]1CCCN1C(=O)[C@@H](N)CCCNC(N)=O)C(=O)N[C@@H](CO)C(=O)NCC(=O)NCC(=O)NCC(=O)N[C@@H](Cc1ccc(O)cc1)C(=O)N[C@@H](CCCNC(N)=O)C(=O)N[C@@H](C)C(=O)N[C@@H](CCCNC(N)=O)C(N)=O) [β60-74Cit-NH2, X1, X2 citrullyl; X3 citrullyl derivative with carboxamide in place of terminal carboxyl; fibrinogen β-chain 60-74] | significant correlations | +++ | +++ | +++ | [empty] | +++ | ++ | ++ | [empty] | [empty] | +++ | most of the plasmas tested were reactive | 76% |
